# Values joined by “and” are separate entries in the source; they are usually repeats but may differ in a detail not shown here. Identical values can stand only once.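 Growth conditions: 96-well plates. Treatment: test compound, 48 hours, 5 concentrations. Analysis: linear interpolation between bracketing concentrations; unreached endpoints set to highest concentration. Here, GI50 denotes the concentration required for 50% inhibition of growth. TGI marks complete inhibition of growth.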
# Experiments:
# Test in all cases: NCI tumour cell line growth inhibition, 48 h
# HOP-92 NSCLC = tested on: HOP-92 NSCLC
# UACC-62 melanoma = tested on: UACC-62 melanoma
# MDA-MB-435 = tested on: MDA-MB-435
# U251 CNS = tested on: U251 CNS
# HCT-116 colon = tested on: HCT-116 colon
# SN12C renal = tested on: SN12C renal
# 786-0 renal = tested on: 786-0 renal
# TK-10 renal = tested on: TK-10 renal
# COLO 205 colon = tested on: COLO 205 colon
# SW-620 colon = tested on: SW-620 colon
# MCF7 breast = tested on: MCF7 breast
# CAKI-1 renal = tested on: CAKI-1 renal
# SK-OV-3 ovarian = tested on: SK-OV-3 ovarian
# SNB-19 CNS = tested on: SNB-19 CNS
# LOX IMVI melanoma = tested on: LOX IMVI melanoma
# UO-31 renal = tested on: UO-31 renal
# OVCAR-4 ovarian = tested on: OVCAR-4 ovarian
# NCI/ADR-RES ovarian = tested on: NCI/ADR-RES ovarian
# PC-3 prostate = tested on: PC-3 prostate
# MALME-3M melanoma = tested on: MALME-3M melanoma
# SR leukemia = tested on: SR leukemia
# IGROV1 ovarian = tested on: IGROV1 ovarian
# SK-MEL-28 melanoma = tested on: SK-MEL-28 melanoma
# SNB-75 CNS = tested on: SNB-75 CNS
# HCC-2998 colon = tested on: HCC-2998 colon
# ACHN renal = tested on: ACHN renal
# OVCAR-3 ovarian = tested on: OVCAR-3 ovarian
# SF-539 CNS = tested on: SF-539 CNS
# NCI-H23 lung = tested on: NCI-H23 lung
# OVCAR-8 ovarian = tested on: OVCAR-8 ovarian
# T-47D breast = tested on: T-47D breast
# UACC-257 melanoma = tested on: UACC-257 melanoma
# SK-MEL-5 melanoma = tested on: SK-MEL-5 melanoma
# RXF 393 renal = tested on: RXF 393 renal
# MDA-N = tested on: MDA-N
# KM12 colon = tested on: KM12 colon
# SF-268 CNS = tested on: SF-268 CNS
# EKVX NSCLC = tested on: EKVX NSCLC
# A498 renal = tested on: A498 renal
# A549 NSCLC = tested on: A549 NSCLC
# M14 melanoma = tested on: M14 melanoma
# HCT-15 colon = tested on: HCT-15 colon
# HL-60(TB) leukemia = tested on: HL-60(TB) leukemia
# NCI-H226 lung = tested on: NCI-H226 lung
# MOLT-4 leukemia = tested on: MOLT-4 leukemia
# HT29 colon = tested on: HT29 colon
# HOP-62 NSCLC = tested on: HOP-62 NSCLC
# NCI-H460 lung = tested on: NCI-H460 lung
# RPMI-8226 leukemia = tested on: RPMI-8226 leukemia
# SF-295 CNS = tested on: SF-295 CNS
# HS 578T breast = tested on: HS 578T breast
# DU-145 prostate = tested on: DU-145 prostate
# MDA-MB-231 breast = tested on: MDA-MB-231 breast
# CCRF-CEM leukemia = tested on: CCRF-CEM leukemia
# SK-MEL-2 melanoma = tested on: SK-MEL-2 melanoma
# K-562 leukemia = tested on: K-562 leukemia
# OVCAR-5 ovarian = tested on: OVCAR-5 ovarian
# NCI-H522 lung = tested on: NCI-H522 lung
smiles,measurement,setting,value
CC(=O)O[C@H]1C(=O)[C@@]2(C)C(C(OC(=O)c3ccccc3)[C@]3(O)CC(OC(=O)[C@H](OC(=O)CCC(=O)O)C(NC(=O)c4ccccc4)c4ccccc4)C(C)=C1C3(C)C)C1(OC(C)=O)COC1C[C@@H]2OC(=O)CCC(=O)O (some centres undefined),TGI,HOP-92 NSCLC,> 100 µM
same,GI50,UACC-62 melanoma,2.05 µM
same,TGI,UACC-62 melanoma,29.3 µM
same,GI50,MDA-MB-435,0.189 µM
same,TGI,MDA-MB-435,0.495 µM
same,TGI,U251 CNS,> 100 µM
same,TGI,HCT-116 colon,> 100 µM
same,TGI,SN12C renal,> 100 µM
same,TGI,786-0 renal,> 100 µM
same,TGI,TK-10 renal,> 100 µM
same,GI50,COLO 205 colon,0.865 µM
same,TGI,COLO 205 colon,18.6 µM
same,TGI,SW-620 colon,> 100 µM
same,TGI,MCF7 breast,> 100 µM
same,GI50,CAKI-1 renal,> 89.2 µM and 36.3 µM
same,TGI,CAKI-1 renal,> 100 µM
same,TGI,SK-OV-3 ovarian,> 100 µM
same,TGI,SNB-19 CNS,> 100 µM
same,TGI,LOX IMVI melanoma,> 100 µM
same,TGI,UO-31 renal,> 100 µM
same,TGI,OVCAR-4 ovarian,> 100 µM
same,GI50,NCI/ADR-RES ovarian,> 100 µM and 26.6 µM
same,TGI,NCI/ADR-RES ovarian,> 100 µM
same,TGI,PC-3 prostate,> 100 µM
same,TGI,MALME-3M melanoma,> 100 µM
same,GI50,SR leukemia,< 0.0202 µM
same,TGI,SR leukemia,> 23.3 µM
same,TGI,IGROV1 ovarian,> 100 µM
same,TGI,SK-MEL-28 melanoma,86.9 µM
same,TGI,SNB-75 CNS,> 26.8 µM
same,TGI,HCC-2998 colon,42.4 µM
same,TGI,ACHN renal,> 100 µM
same,GI50,OVCAR-3 ovarian,1.89 µM
same,TGI,OVCAR-3 ovarian,> 54.2 µM
same,TGI,SF-539 CNS,2.72 µM
same,TGI,NCI-H23 lung,> 100 µM
same,TGI,OVCAR-8 ovarian,> 100 µM
same,TGI,T-47D breast,> 100 µM
same,TGI,UACC-257 melanoma,> 100 µM
same,TGI,SK-MEL-5 melanoma,> 100 µM
same,TGI,RXF 393 renal,> 26 µM
same,GI50,MDA-N,0.253 µM
same,TGI,MDA-N,1.21 µM
same,TGI,KM12 colon,> 100 µM
same,TGI,SF-268 CNS,> 100 µM
same,TGI,EKVX NSCLC,> 100 µM
same,GI50,A498 renal,0.0997 µM
same,TGI,A498 renal,5.65 µM
same,TGI,A549 NSCLC,> 100 µM
same,TGI,M14 melanoma,> 100 µM
same,TGI,HCT-15 colon,> 100 µM
same,TGI,HL-60(TB) leukemia,0.868 µM
same,TGI,NCI-H226 lung,81.1 µM and > 100 µM
same,TGI,MOLT-4 leukemia,> 20.6 µM
O=C1c2c(O)cccc2Cc2cccc(O)c21,TGI,HT29 colon,1.55 µM
same,TGI,HOP-62 NSCLC,1.32 µM
same,TGI,NCI-H460 lung,1.31 µM
same,TGI,UACC-62 melanoma,3.07 µM
same,TGI,MDA-MB-435,11.2 µM
same,TGI,U251 CNS,1.47 µM
same,TGI,RPMI-8226 leukemia,1.03 µM
same,TGI,786-0 renal,1.76 µM
same,TGI,TK-10 renal,5.35 µM
same,TGI,MCF7 breast,0.664 µM
same,TGI,CAKI-1 renal,1.2 µM
same,TGI,SK-OV-3 ovarian,1.21 µM
same,TGI,SNB-19 CNS,5.39 µM
same,TGI,UO-31 renal,1.15 µM
same,TGI,OVCAR-4 ovarian,1.8 µM
same,TGI,SR leukemia,1.74 µM
same,TGI,SF-295 CNS,0.782 µM
same,TGI,IGROV1 ovarian,1.56 µM
same,TGI,SK-MEL-28 melanoma,3.75 µM
same,TGI,HS 578T breast,1.09 µM
same,TGI,ACHN renal,1.1 µM
same,TGI,OVCAR-3 ovarian,1.97 µM
same,TGI,SF-539 CNS,0.923 µM
same,TGI,NCI-H23 lung,12.8 µM
same,TGI,OVCAR-8 ovarian,1.04 µM
same,TGI,UACC-257 melanoma,0.653 µM
same,TGI,SK-MEL-5 melanoma,0.33 µM
same,TGI,RXF 393 renal,1.33 µM
same,TGI,MDA-N,10.2 µM
same,TGI,KM12 colon,1.32 µM
same,TGI,SF-268 CNS,3.25 µM
same,TGI,EKVX NSCLC,0.572 µM
same,TGI,A498 renal,4.81 µM
same,TGI,A549 NSCLC,1.07 µM
same,TGI,M14 melanoma,1.97 µM
same,TGI,HL-60(TB) leukemia,0.672 µM
same,TGI,NCI-H226 lung,1.27 µM
same,TGI,DU-145 prostate,0.942 µM
C=C1CN=C(Nc2ccc(F)cc2F)S1,TGI,HT29 colon,> 100 µM
same,TGI,HOP-92 NSCLC,> 100 µM
same,TGI,HOP-62 NSCLC,> 100 µM
same,TGI,NCI-H460 lung,> 100 µM
same,TGI,U251 CNS,> 100 µM
same,TGI,HCT-116 colon,> 100 µM
same,TGI,RPMI-8226 leukemia,> 100 µM
same,TGI,SN12C renal,> 100 µM
same,TGI,786-0 renal,> 100 µM
same,TGI,TK-10 renal,> 100 µM
same,TGI,COLO 205 colon,> 100 µM
same,TGI,SW-620 colon,> 100 µM
same,TGI,MCF7 breast,> 100 µM
same,TGI,CAKI-1 renal,> 100 µM
same,TGI,SK-OV-3 ovarian,> 100 µM
same,TGI,SNB-19 CNS,> 100 µM
same,TGI,LOX IMVI melanoma,49.2 µM
same,TGI,UO-31 renal,> 100 µM
same,TGI,OVCAR-4 ovarian,> 100 µM
same,TGI,NCI/ADR-RES ovarian,> 100 µM
same,TGI,MDA-MB-231 breast,> 100 µM
same,TGI,PC-3 prostate,> 100 µM
same,TGI,MALME-3M melanoma,> 100 µM
same,TGI,SR leukemia,> 100 µM
same,TGI,SF-295 CNS,> 100 µM
same,TGI,IGROV1 ovarian,> 100 µM
same,TGI,SK-MEL-28 melanoma,> 100 µM
same,TGI,SNB-75 CNS,> 100 µM
same,TGI,HS 578T breast,> 100 µM
same,TGI,HCC-2998 colon,> 100 µM
same,TGI,ACHN renal,> 100 µM
same,TGI,SF-539 CNS,> 100 µM
same,TGI,NCI-H23 lung,> 100 µM
same,TGI,OVCAR-8 ovarian,> 100 µM
same,TGI,T-47D breast,> 100 µM
same,TGI,CCRF-CEM leukemia,66.1 µM
same,TGI,UACC-257 melanoma,> 100 µM
same,TGI,SK-MEL-5 melanoma,> 100 µM
same,TGI,SK-MEL-2 melanoma,> 100 µM
same,TGI,MDA-N,> 100 µM
same,TGI,KM12 colon,> 100 µM
same,TGI,SF-268 CNS,> 100 µM
same,TGI,K-562 leukemia,> 100 µM
same,TGI,EKVX NSCLC,> 100 µM
same,TGI,A498 renal,> 100 µM
same,TGI,A549 NSCLC,> 100 µM
same,TGI,HCT-15 colon,> 100 µM
same,TGI,HL-60(TB) leukemia,> 100 µM
same,TGI,OVCAR-5 ovarian,> 100 µM
same,TGI,DU-145 prostate,> 100 µM
same,TGI,MOLT-4 leukemia,96.5 µM
COc1ccc(/C=N/N=C(\N)NO)c(OC)c1OC,TGI,HT29 colon,> 100 µM
same,TGI,HOP-92 NSCLC,71.2 µM
same,TGI,HOP-62 NSCLC,> 100 µM
same,TGI,NCI-H460 lung,> 100 µM
same,TGI,UACC-62 melanoma,> 100 µM
same,TGI,MDA-MB-435,> 100 µM
same,TGI,U251 CNS,> 100 µM
same,TGI,HCT-116 colon,75.5 µM
same,TGI,RPMI-8226 leukemia,> 100 µM
same,TGI,SN12C renal,> 100 µM
same,TGI,786-0 renal,> 100 µM
same,TGI,TK-10 renal,> 100 µM
same,TGI,COLO 205 colon,> 100 µM
same,TGI,SW-620 colon,> 100 µM
same,TGI,MCF7 breast,> 100 µM
same,TGI,CAKI-1 renal,> 100 µM
same,TGI,SK-OV-3 ovarian,> 100 µM
same,TGI,SNB-19 CNS,> 100 µM
same,TGI,LOX IMVI melanoma,> 100 µM
same,TGI,UO-31 renal,91.9 µM
same,TGI,OVCAR-4 ovarian,> 100 µM
same,TGI,NCI/ADR-RES ovarian,35.4 µM
same,TGI,MDA-MB-231 breast,> 100 µM
same,TGI,PC-3 prostate,> 100 µM
same,TGI,MALME-3M melanoma,> 100 µM
same,TGI,SR leukemia,74.5 µM
same,TGI,SF-295 CNS,> 100 µM
same,TGI,IGROV1 ovarian,> 100 µM
same,TGI,SK-MEL-28 melanoma,> 100 µM
same,TGI,HS 578T breast,> 100 µM
same,TGI,HCC-2998 colon,> 100 µM
same,TGI,ACHN renal,67.2 µM
same,TGI,OVCAR-3 ovarian,67.3 µM
same,TGI,SF-539 CNS,61.7 µM
same,TGI,NCI-H23 lung,> 100 µM
same,TGI,OVCAR-8 ovarian,41.9 µM
same,TGI,T-47D breast,90.2 µM
same,TGI,CCRF-CEM leukemia,76.1 µM
same,TGI,SK-MEL-5 melanoma,72 µM
same,TGI,RXF 393 renal,> 100 µM
same,TGI,SK-MEL-2 melanoma,> 100 µM
same,TGI,MDA-N,> 100 µM
same,TGI,KM12 colon,52.9 µM
same,TGI,SF-268 CNS,> 100 µM
same,TGI,K-562 leukemia,> 100 µM
same,TGI,EKVX NSCLC,> 100 µM
same,TGI,A498 renal,77.6 µM
same,TGI,NCI-H522 lung,> 100 µM
same,TGI,A549 NSCLC,> 100 µM
same,TGI,M14 melanoma,> 100 µM
same,TGI,HCT-15 colon,> 100 µM
same,TGI,HL-60(TB) leukemia,45.8 µM
same,TGI,NCI-H226 lung,74.3 µM
same,TGI,OVCAR-5 ovarian,> 100 µM
same,TGI,DU-145 prostate,> 100 µM
same,TGI,MOLT-4 leukemia,> 100 µM

# Source: PubChem BioAssay (NCI)
